PMC6964649, “Light-controllable dithienylethene-modified cyclic peptides: photoswitching the in vivo toxicity in zebrafish embryos” (Beilstein Journal of Organic Chemistry, 2020)
Several values for one entry are separate records, joined by “and”; a condition that tells them apart may be missing. Equal values may be shown once. Marks after values point to notes of the source that are not given here. Starred links: 1 amine or outer side, 2 acyl side, 3 side chain; linkers in the order of their positions; H or OH if unused. Positions of bridges follow the written chain, without caps; N, C: chain ends. Non-standard residues stand in square brackets, D forms with d. Residues, ends and D or L forms follow the SMILES beside them. *: point of attachment. X2 = Cc1sc(C(=O)[C@@H]2CCCN2[*:2])cc1C1=C(c2cc(C(=O)[*:1])sc2C)CCC1; Leu(3R-OH) = CC(C)[C@@H](O)[C@H](N)C(=O)O; Isobutyryl = CC(C)C(=O)*; Orn = NCCC[C@H](N)C(=O)O; Dab = NCC[C@H](N)C(=O)O

Legend:
D. rerio embryos [1] = experiment: D. rerio embryotoxicity "photoactivation" assay (ring-closed photoform in darkness, then in situ photoconversion); format: in vivo, Danio rerio; conditions: for LD50 (opened)^1h / LD50 (opened)^24h: after 24 h with ring-closed form in dark, in situ illumination 10 min, λ = 570 nm, approx. 20 mW/cm^2; for LD50 (opened)^1h: mortality 1 h after illumination, embryos 4 dpf; for LD50 (opened)^24h: mortality 24 h after illumination, embryos 5 dpf at readout; for LD50(closed)^24h/LD50(open)^24h ratio: phototherapeutic safety window, ring-closed 24 h LD50 (dark) divided by ring-open 24 h LD50 (direct application); for LD50 (closed)^24h: ring-closed photoform applied to embryos at 3 dpf, 24 h in the dark
Description: (§1) To establish the assay for screening the photoswitchable peptides, we first studied the toxicity of our prototype 2 by varying the assay conditions. The parent peptide GS 1 was used as a control. […] We measured the doses causing the death of 50% embryos (LD50). We tested two different assay variations: in one version, the LD50(open) was determined after direct application of 1 or of the ring-open form of 2. In the other variant, the photoswitchable peptide was applied in the ring-closed photoform in the darkness, its LD50(closed) was recorded, and then in situ illumination (“photoactivation”) was applied to switch into the ring-open photoform and obtain the respective LD50(opened) values (see Figure 2 for the study design and the killing curves).
(§2) Figure 2 Two versions of the D. rerio embryotoxicity assay for DAE-modified peptides: timelines, peptide photostates, ages of larvae, and definitions of the measured characteristics. (A) Direct application of the non-photoswitchable parent GS 1 or of the ring-open photoform of our prototype 2, and the corresponding killing curves for 1 (C, top, black) and 2 (C, bottom, red). (B) “Photoactivation” assay: initial application of the ring-closed photoform, incubation in darkness, followed by in situ photoconversion into the ring-open(ed) photoform, with the corresponding killing curves for 1 (D, top) and 2 (D, bottom, green for ring-closed, red for ring-open isomers). The latter panel illustrates the “phototherapeutic safety window” (green arrow) as the difference in toxicity between the ring-closed and the ring-open isomers upon photoactivation.
(§3) Each time, 12–15 or 18–20 zebrafish embryos at 3 dpf were treated by applying the corresponding peptide dissolved in dimethyl sulfoxide (final dimethyl sulfoxide concentration was 0.2%). Double-concentrated peptide stock solutions (64–512 µg/mL) were prepared by weighing lyophilized peptides, dissolving in 10% dimethyl sulfoxide and constructing two-fold dilution series with ten–eleven dilution steps. In the photoconversion experiments, in order to prevent spontaneous photoswitching of the ring-closed peptides by vis light, zebrafish embryos and peptides were kept in the dark before the first readout, and the vials were sealed to avoid evaporation of the embryonic medium (E3) at prolonged incubation times. After the first screen, without exchanging any solution, the vials with embryos and ring-closed photoforms were exposed to intense illumination for 10 min (LUMATEC Superlite 410 light source, λ = 570 nm, irradiance approximately 20 mW/cm^2). Mortality was then determined under ambient light conditions at 1 h and 24 h after the illumination procedure.

D. rerio embryos [2] = experiment: D. rerio embryotoxicity assay, direct application of ring-open photoform; format: in vivo, Danio rerio; conditions: direct application of 1 or ring-open photoform, zebrafish embryos at 3 dpf, final DMSO 0.2%, ambient light, value ± STD; for LD50 (open)^1h: 1 h incubation, 12–15 or 18–20 embryos; for LD50 (open)^3h: 3 h incubation; for LD50 (open)^24h: 24 h incubation
Description: as §1, §2, §3

[3] = sealed vials, E3 medium, 0.2% DMSO, value ± STD

| SMILES | LD50 (opened)^1h (D. rerio embryos [1]; value ± STD) | LD50 (opened)^24h (D. rerio embryos [1]; value ± STD) | LD50(closed)^24h/LD50(open)^24h ratio (D. rerio embryos [1]) | LD50 (closed)^24h (D. rerio embryos [1]; [3]) | LD50 (open)^1h (D. rerio embryos [2]) | LD50 (open)^3h (D. rerio embryos [2]) | LD50 (open)^24h (D. rerio embryos [2]) | LD50 (closed)^24h (D. rerio embryos [1]; measurement performed once, STD not calculated) |
| --- | --- | --- | --- | --- | --- | --- | --- | --- |
| Cc1sc2cc1C1=C(CCC1)c1cc(sc1C)C(=O)[C@@H]1CCCN1C(=O)[C@H](C(C)C)NC(=O)[C@H](CCCCN)NC(=O)[C@H](C(C)C)NC(=O)[C@H](CC(C)C)NC(=O)[C@H](CCCCN)NC(=O)[C@@H]1CCCN1C(=O)[C@@H](Cc1ccccc1)NC(=O)[C@H](C(C)C)NC(=O)[C@H](CCCCN)NC(=O)[C@H](CC(C)C)NC(=O)[C@H](CCCCN)NC(=O)[C@H](C(C)C)NC2=O [Peptide 18] (VKLKV[dF]PKLVKV; linker N-C via X2) | 12.3 ± 1.5 µg/mL | 12.3 ± 1.5 µg/mL | 30.8 | 12.3 ± 1.5 µg/mL | 0.9 ± 0.4 µg/mL | 0.9 ± 0.4 µg/mL | 0.4 ± 0.2 µg/mL | – |
| Cc1sc2cc1C1=C(CCC1)c1cc(sc1C)C(=O)[C@@H]1CCCN1C(=O)[C@H]([C@H](O)C(C)C)NC(=O)[C@H](CCCN)NC(=O)[C@H](C(C)C)NC(=O)[C@@H]1CCCN1C(=O)[C@@H](Cc1ccccc1)NC(=O)[C@H](C(C)C)NC(=O)[C@H](CCCN)NC(=O)[C@H](C(C)C)NC2=O [Peptide 14] | 9.1 ± 4.2 µg/mL | 4.6 ± 2.0 µg/mL | 25.2 | 50.4 ± 27.2 µg/mL | 8.1 ± 2.0 µg/mL | 6.2 ± 0.7 µg/mL | 2.0 ± 0.0 µg/mL | – |
| Cc1sc2cc1C1=C(CCC1)c1cc(sc1C)C(=O)[C@@H]1CCCN1C(=O)[C@H](C(C)C)NC(=O)[C@H](CCCN)NC(=O)[C@H](C(C)C)NC(=O)[C@@H]1CCCN1C(=O)[C@@H](Cc1ccccc1)NC(=O)[C@H](C(C)C)NC(=O)[C@H](CCCN)NC(=O)[C@H](CCNC(=O)C(C)C)NC2=O [Peptide 8] ([Dab](Isobutyryl)[Orn]V[dF]PV[Orn]V; linker N-C via X2) | 9.6 ± 5.6 µg/mL | 3.0 ± 2.7 µg/mL | 121 and 121.2 | – | 12.0 ± 0.8 µg/mL | 5.7 ± 0.4 µg/mL | 3.9 ± 1.5 µg/mL | – |
| Cc1sc2cc1C1=C(CCC1)c1cc(sc1C)C(=O)[C@@H]1CCCN1C(=O)[C@H](C)NC(=O)[C@H](CCCN)NC(=O)[C@H](C(C)C)NC(=O)[C@@H]1CCCN1C(=O)[C@@H](Cc1ccccc1)NC(=O)[C@H](CC(C)C)NC(=O)[C@H](CCCN)NC(=O)[C@H](C)NC2=O [Peptide 4] (A[Orn]L[dF]PV[Orn]A; linker N-C via X2) | 51.0 ± 7.7 µg/mL | 12.9 ± 1.9 µg/mL | 10.4 | – | 69.8 ± 10.5 µg/mL | 40.6 ± 11.2 µg/mL | 19.0 ± 1.3 µg/mL | – |
| Cc1sc2cc1C1=C(CCC1)c1cc(sc1C)C(=O)[C@@H]1CCCN1C(=O)[C@H](C)NC(=O)[C@H](CCCN)NC(=O)[C@H](C(C)C)NC(=O)[C@@H]1CCCN1C(=O)[C@@H](Cc1ccccc1)NC(=O)[C@H](CC(C)C)NC(=O)[C@H](CCCN)NC(=O)[C@H](C(C)C)NC2=O [Peptide 3] | 9.5 ± 1.3 µg/mL | 6.2 ± 0.6 µg/mL | 6.6 | 31.1 ± 4.2 µg/mL | 9.3 ± 7.8 µg/mL | 4.8 ± 3.9 µg/mL | 4.7 ± 0.1 µg/mL | – |
| Cc1sc2cc1C1=C(CCC1)c1cc(sc1C)C(=O)[C@@H]1CCCN1C(=O)[C@H](C(C)C)NC(=O)[C@H](CCCN)NC(=O)[C@H]([C@H](O)C(C)C)NC(=O)[C@@H]1CCCN1C(=O)[C@@H](Cc1ccccc1)NC(=O)[C@H](C(C)C)NC(=O)[C@H](CCCN)NC(=O)[C@H](C(C)C)NC2=O [Peptide 13] (V[Orn]V[dF]P[Leu(3R-OH)][Orn]V; linker N-C via X2) | 6.4 ± 0.4 µg/mL | 3.4 ± 0.5 µg/mL | 20.5 | – | 4.8 ± 3.8 µg/mL | 4.3 ± 3.8 µg/mL | 2.2 ± 1.0 µg/mL | 45.0^b µg/mL |
